Data on 31 compounds can be found in patent US5463071A, “5-membered heterocyclic compounds, processes for preparing them and pharmaceutical compositions containing these compounds” (Dr. Karl Thomae GmbH, priority 1991, dated 1995).

Where a name gives a salt, the structure may show the parent alone.

One experiment has as its system human thrombocytes. The experiment can be described thus: Fibrinogen binding to human thrombocytes (125I fibrinogen, gel-filtered platelets). The note with it: ADP, 20 minutes at ambient temperature, read-out: Fibrinogen-binding test IC50. The method, then:
1. Fibrinogen binding to human thrombocytes The blood obtained by puncturing an antecubital vein is anticoagulated with trisodium citrate (final concentration: 13 mM) and centrifuged for 10 minutes at 170×g. The supernatant platelet-rich plasma is poured onto a Sepharose 2B column (Pharmacia) and eluted with a solution of 90 mM common salt, 14 mM trisodium citrate, 5 mM glucose and 50 mM Tris(hydroxymethyl)aminomethane, adjusted to pH 7.4. The gel-filtered platelets (GFP) appearing before the plasma proteins are used for the binding experiments. 50 μl of a 60 mM calcium chloride solution, 50 μl of a 0.6 mM adenosine diphosphate solution, 100 μl of substance solution or solvent and 50 μl of fibrinogen solution (containing 3 μg of ^125 I fibrinogen) are added to 750 μl of GFP and incubated for 20 minutes at ambient temperature. The non-specific binding is determined in the presence of 3 mg/ml of cold fibrinogen. 900 μof the incubated material are carefully pipetted onto 250 μof silicon oil (AP 38: AR 20, 1:2 v/v, Wacker Chemie) in Eppendorf tubes and centrifuged for 2 minutes at 10,000×g. The aqueous supernatant and part of the oil are drawn off, the tips of the tubes are cut off together with the platelet pellet and the quantity of bound fibrinogen is determined in a gamma counter. The concentration of substance which brings about a 50% inhibition in fibrinogen binding is determined from a series of concentrations and is given as the IC50 value.

Experiment [1] concerns collagen-induced platelet aggregation in platelet-rich plasma. The experiment can be described thus: Antithrombotic activity: inhibition of collagen-induced thrombocyte (platelet) aggregation, Born and Cross method. In kind it is cell-based, healthy volunteers (human). The note with it: Homo sapiens, 10 minutes preincubation at 37° C. Here is the method: 2. Antithrombotic activity Method The thrombocyte aggregation is measured using the Born and Cross method (J. Physiol. 170: 397 (1964)) in platelet-rich plasma taken from healthy volunteers. To inhibit coagulation the blood is mixed with 3.14% sodium citrate in a ratio by volume of 1:10. Collagen-induced aggregation The pattern of the decrease in optical density of the platelet suspension is photometrically measured and recorded after the addition of the aggregation-triggering substance. The rate of aggregation is concluded from the angle of inclination of the density curve. The point on the curve where there is maximum light transmittance is used to calculate the optical density. The amount of collagen used is as small as possible but sufficient to produce an irreversible reaction curve. Standard commercial collagen produced by Hormonchemie of Munich is used. Before the addition of the collagen the plasma is incubated for 10 minutes with the substance at 37° C. From the measurements obtained an EC50 is determined graphically, indicating a 50% change in the optical density in terms of the inhibition of aggregation.

By IC50 is commonly meant the midpoint of a concentration-inhibition curve. The EC50 is the concentration needed to bring the measured effect to its halfway point. On to `COC(=O)CCc1cc(C(=O)OC)c(-c2ccc(-c3ccc(C(=N)N)cc3)cc2)o1` [2(126), 2-(4-amidino-4'-biphenylyl)-3-methoxycarbonyl-5-(2-methoxycarbonyl-ethyl)-furan-hydrochloride], for which, in the experiment with human thrombocytes, the IC50 came out at 1400 nM. For the same compound, in experiment [1], the concentration for a half-maximal effect (EC50) was determined as 22000 nM.

Consider `N=C(N)c1ccc(-c2ccc(-n3cnc(CC(C(=O)O)N(Cc4ccccc4)Cc4ccccc4)c3)nn2)cc1` (stereo not drawn) [1(35), 1-[6-(4-amidino-phenyl)-3-pyridazinyl]-4-(2-carboxy-2-dibenzylamino-ethyl)-imidazole], for which the IC50 with human thrombocytes amounted to 2400 nM. The compound also showed an EC50 in experiment [1] of 6900 nM.

For `COC(=O)CCc1cn(-c2ccc(-c3ccc(C(=N)N)cc3)nn2)c2ccccc12` [2(37), 1-[6-(4-amidino-phenyl)-3-pyridazinyl]-3-(2-methoxycarbonyl-ethyl)-indole], in the experiment on human thrombocytes, the IC50 was 6200 nM. The midpoint of the response in experiment [1], the EC50, lay at 6100 nM.

On to `COC(=O)CCc1ccc(-c2nc(-c3ccc(C(=N)N)cc3)n[nH]2)cc1` [2(8), 3-(4-amidino-phenyl)-5-[4-(2-methoxycarbonyl-ethyl)-phenyl]-1,2,4-triazole], for which the IC50 in the experiment on human thrombocytes is 44000 nM. For the same compound, the EC50 in experiment [1] came out at 6400 nM. In the case of `N=C(N)c1ccc(-c2ccc(-c3oc(CCC(=O)O)cc3C(=O)O)cc2)cc1` [1(128), 2-(4-amidino-4'-biphenyl)-3-carboxy-5-(2-carboxy-ethyl)-furan], the IC50 with human thrombocytes turned out to be 3500 nM. In experiment [1], this compound displayed a concentration for a half-maximal effect (EC50) of 9000 nM. `COC(=O)CSc1nc(-c2ccc(-c3ccc(C(=N)N)cc3)cc2)n[nH]1` [2(39), 3-(4-amidino-4'-biphenylyl)-5-methoxycarbonyl-methylthio-1,2,4-triazole] returned an EC50 in experiment [1] of 5400 nM. With `COC(=O)C(N)Cc1cn(-c2ccc(-c3ccc(C(=N)N)cc3)nn2)cn1` (stereo not drawn) [2(2), 1-[6-(4-amidino-phenyl)-3-pyridazinyl]-4-(2-amino-2-methoxycarbonyl-ethyl)-imidazole-tris-trifluoroacetate], the IC50 in the experiment on human thrombocytes turned out to be 340 nM. In experiment [1], this compound gave an EC50 of 350 nM. In the case of `COC(=O)CCc1ccc(-c2nc(-c3ccc(C(=N)NC(=O)OC)cc3)cn2C)cc1` [4(1), 4-(4-methoxycarbonylamidino-phenyl)-2-[4-(2-methoxycarbonyl-ethyl)-phenyl]-1-methyl-imidazole], in the experiment with human thrombocytes, the IC50 came to 1500 nM. For the compound `NCc1ccc(-c2ccc(-n3cnc(CC(N)C(=O)O)c3)nn2)cc1` (stereo not drawn) [1(134), 4-(2-amino-2-carboxy-ethyl)-1-[6-(4-aminomethyl-phenyl)-3-pyridazinyl]-imidazole-dihydrochloride], in the experiment with human thrombocytes, the IC50 turned out to be 460 nM. In experiment [1], the concentration for a half-maximal effect (EC50) was 510 nM. As to `COC(=O)CCc1cn(-c2ccc(-c3ccc(C(=N)N)cc3)nn2)cn1` [Example 2, 1-[6-(4-Amidino-phenyl)-3-pyridazinyl]-4-(2-methoxy-carbonyl-ethyl)-imidazole], the IC50 in the experiment with human thrombocytes stood at 510 nM. In addition, the EC50 in experiment [1] came out at 2200 nM. On to `N=C(N)c1ccc(-c2ccc(-n3cc(CCC(=O)O)c4ccccc43)nn2)cc1` [1(37), 1-[6-(4-amidino-phenyl)-3-pyridazinyl]-3-(2-carboxy-ethyl)-indole], for which, in the experiment on human thrombocytes, the 50% inhibitory concentration (IC50) was found to be 150 nM. For the same compound, in experiment [1], a half-maximal response (EC50) required 2400 nM. As for `COC(=O)CCc1ccc(-c2nc(-c3ccc(C(=N)N)cc3)cs2)cc1` [2(5), 4-(4-amidino-phenyl)-2-[4-(2-methoxycarbonyl-ethyl)-phenyl]-thiazole-hydrochloride], in the experiment on human thrombocytes, the IC50 came to 3100 nM. In experiment [1], this compound showed an EC50 of 7500 nM. Regarding `Cn1cc(-c2ccc(C(=N)N)cc2)nc1-c1ccc(CCC(=O)O)cc1` [1(6), 4-(4-amidino-phenyl)-2-[4-(2-carboxy-ethyl)-phenyl]-1-methyl-imidazole], the half-maximal inhibitory concentration (IC50) in the experiment with human thrombocytes is 25 nM. In addition, a half-maximal effect in experiment [1] (EC50) was put at 90 nM. In the same order, the values of `N=C(N)c1ccc(-c2ccc(-n3cnc(CC(O)C(=O)O)c3)nn2)cc1` (stereo not drawn) [1(1), 1-[-6-(4-amidinophenyl)-3-pyridazinyl]-4-(2-carboxy-2-hydroxy-ethyl)-imidazole] are 38 nM and 90 nM.

Regarding `N=C(N)c1ccc(-c2n[nH]c(-c3ccc(CCC(=O)O)cc3)n2)cc1` [1(8), 3-(4-amidino-phenyl)-5-[4-(2-carboxy-ethyl)-phenyl]-1,2,4-triazole], in the experiment on human thrombocytes, the IC50 is 460 nM. The same compound displayed an EC50 in experiment [1] of 4100 nM. Consider `COC(=O)C(O)Cc1cn(-c2ccc(-c3ccc(C(=N)N)cc3)nn2)cn1` (stereo not drawn) [2(1), 1-[6-(4-amidino-phenyl)-3-pyridazinyl]-4-(2-hydroxy-2-methoxycarbonyl-ethyl)-imidazole], for which the EC50 in experiment [1] is 180 nM. For the compound `COC(=O)CCn1nnc(-c2ccc(-c3ccc(C(=N)N)cc3)cc2)n1` [2(4), 5-(4-amidino-4'-biphenylyl)-2-(2-methoxycarbonyl-ethyl)-tetrazole-hydrochloride], in the experiment with human thrombocytes, the IC50 is 490 nM. Further, a half-maximal effect in experiment [1] (EC50) was put at 370 nM. As to `COC(=O)CCc1ccc(-c2nc(-c3ccc(C(=N)NC(=O)OC)cc3)c[nH]2)cc1` [4(2), 4-(4-methoxycarbonylamidino-phenyl)-2-[4-(2-methoxycarbonyl-ethyl)-phenyl]-imidazole], the IC50 with human thrombocytes is 1800 nM. On to `N=C(N)c1ccc(-c2nnc(-c3ccc(CCC(=O)O)cc3)s2)cc1` [1(10), 2-(4-amidino-phenyl)-5-[4-(2-carboxy-ethyl)-phenyl]-1,3,4-thiadiazole], for which the IC50 with human thrombocytes was found to be 2000 nM. Besides, in experiment [1], a half-maximal response (EC50) required 9500 nM. Take `COC(=O)c1cc(CCC(=O)O)oc1-c1ccc(-c2ccc(C(=N)N)cc2)cc1` [1(127), 2-(4-amidino-4'-biphenyl)-5-(2-carboxy-ethyl)-3-methoxycarbonyl-furan]: in the experiment on human thrombocytes, the IC50 came out at 2500 nM. Moreover, the EC50 in experiment [1] turned out to be 14000 nM. With `N=C(N)c1ccc(-c2ccc(-c3nnn(CCC(=O)O)n3)cc2)cc1` [1(4), 5-(4-amidino-4'-biphenylyl)-2-(2-carboxy-ethyl)-tetrazole], the IC50 in the experiment on human thrombocytes amounted to 44 nM. For the same compound, the 50% effective concentration (EC50) in experiment [1] turned out to be 290 nM. `N=C(N)c1ccc(-c2ccc(-c3nnc(CCC(=O)O)s3)cc2)cc1` [1(20), 2-(4-amidino-4'-biphenylyl)-5-(2-carboxy-ethyl)-1,3,4-thiadiazole]: the IC50 in the experiment on human thrombocytes was 65 nM. In experiment [1], the EC50 amounted to 290 nM. On to `COC(=O)CCc1ccc(-c2nnc(-c3ccc(C(=N)N)cc3)s2)cc1` [2(10), 2-(4-amidino-phenyl)-5-[4-(2-methoxycarbonyl-ethyl)-phenyl]-1,3,4-thiadiazole], for which the EC50 in experiment [1] is 220 nM. Regarding `COC(=O)CCc1ccc(-c2nc(-c3ccc(C(=N)N)cc3)cn2C)cc1` [2(6), 4-(4-amidino-phenyl)-2-[4-(2-methoxycarbonyl-ethyl)-phenyl]-1-methyl-imidazole-hydrochloride], the IC50 in the experiment with human thrombocytes was 4300 nM. Moreover, in experiment [1], the response was half-maximal at 210 nM (EC50). With `N=C(N)c1ccc(-c2nnn(-c3ccc(CCC(=O)O)cc3)n2)cc1` [1(3), 5-(4-amidino-phenyl)-2-[4-(2-carboxy-ethyl)-phenyl]-tetrazole], in the experiment with human thrombocytes, the IC50 stood at 220 nM. For the same compound, the EC50 in experiment [1] is 11000 nM. With `COC(=O)CCc1nnc(-c2ccc(-c3ccc(C(=N)N)cc3)cc2)s1` [2(20), 2-(4-amidino-4'-biphenylyl)-5-(2-methoxycarbonyl-ethyl)-1,3,4-thiadiazole], the IC50 in the experiment on human thrombocytes stood at 4900 nM. The compound further had an EC50 in experiment [1] of 280 nM.

Regarding `N=C(N)c1ccc(-c2nnc(-c3ccc(CCC(=O)O)cc3)o2)cc1` [1(9), 2-(4-amidino-phenyl)-5-[4-(2-carboxy-ethyl)-phenyl]-1,3,4-oxadiazole], the IC50 in the experiment with human thrombocytes was 4200 nM. Besides, in experiment [1], a half-maximal response (EC50) required 8500 nM. As to `N=C(N)c1ccc(-c2c[nH]c(-c3ccc(CCC(=O)O)cc3)n2)cc1` [1(7), 4-(4-amidino-phenyl)-2-[4-(2-carboxy-ethyl)-phenyl]-imidazole], the IC50 with human thrombocytes stood at 210 nM. The midpoint of the response in experiment [1], the EC50, lay at 580 nM. For the compound `COC(=O)CCc1ccc(-c2nc(-c3ccc(C(=N)N)cc3)c[nH]2)cc1` [2(7), 4-(4-amidino-phenyl)-2-[4-(2-methoxycarbonyl-ethyl)-phenyl]-imidazole-hydrochloride], in the experiment on human thrombocytes, the IC50 stood at 17000 nM. Moreover, in experiment [1], the EC50 was 800 nM. Consider `N=C(N)c1ccc(-c2ccc(-c3n[nH]c(SCC(=O)O)n3)cc2)cc1` [1(39), 3-(4-amidino-4'-biphenylyl)-5-carboxymethylthio-1,2,4-triazole], for which, in the experiment on human thrombocytes, the IC50 was 39 nM. Also, in experiment [1], the EC50 came out at 3700 nM.

As to `COC(=O)CCc1ccc(-n2nnc(-c3ccc(C(=N)N)cc3)n2)cc1` [2(3), 5-(4-amidino-phenyl)-2-[4-(2-methoxycarbonyl-ethyl)-phenyl]-tetrazole-hydrochloride], in the experiment on human thrombocytes, the IC50 was 140 nM. Besides, the EC50 in experiment [1] was 1600 nM.
